Reference: patent US5703236A, “Tetrahydrofuran antifungals” (Schering Corporation, priority 1995, dated 1997)

Experiments:
[1] = tested on: Aspergillus; assay: conventional broth dilution in vitro antifungal test, Aspergillus; type: cell-based, Aspergillus flavus, fumigatus and other species; settings: 37 strains
Description: (§1) The in vitro antifungal activity tests were performed via conventional broth dilution methods in Sabouraud dextrose broth ("SDB") medium and Eagles Minimum Essential Medium ("EMEM") against a large number of fungi. Minimum Inhibitory Concentrations ("MICs") were measured after 24, 48 and 72 hour tests. In many cases, Minimum Fungicidial Concentrations ("MFCS") were measured after 48 and 72 hours.

[2] = tested on: Candida albicans; assay: conventional broth dilution in vitro antifungal test, Candida albicans; type: cell-based; settings: 26 strains; for percentage of strains with MFCs ≤ 1 mcg/mL: Table R (MFCs); for PERCENTAGE OF STRAINS WITH MICs ≤ 1 MCG/ML: Table Q
Description: as §1

[3] = tested on: Candida krusei; assay: conventional broth dilution in vitro antifungal test, Candida krusei; type: cell-based; settings: 16 strains
Description: as §1

[4] = tested on: Candida tropicalis & stellatoidea; assay: conventional broth dilution in vitro antifungal test, Candida tropicalis & stellatoidea; type: cell-based; settings: 5 strains
Description: as §1

[5] = tested on: Candida glabrata; assay: conventional broth dilution in vitro antifungal test, Candida glabrata; type: cell-based; settings: 9 strains; for percentage of strains with MFCs ≤ 1 mcg/mL: Table R (MFCs); for PERCENTAGE OF STRAINS WITH MICs ≤ 1 MCG/ML: Table Q
Description: as §1

[6] = tested on: Cryptococcus neoformans; assay: conventional broth dilution in vitro antifungal test, Cryptococcus neoformans; type: cell-based; settings: 3 strains; for MIC 90: Table S
Description: as §1

[7] = tested on: Dermatophytes; assay: conventional broth dilution in vitro antifungal test, dermatophytes; type: cell-based, T. rubrum, T. mentagrophytes, and T. tonsurans; settings: 6 strains
[8] = serum levels, half lives and tissue distribution following oral dosing; type: in vivo; settings: mice, rats, dogs and monkeys, methyl cellulose formulation
[9] = tested on: cytochrome P-450 liver drug metabolizing enzymes; assay: induction of cytochrome P-450 liver drug metabolizing enzymes, in vivo rat model; settings: oral administration

Compound | PERCENTAGE OF STRAINS WITH MICs ≤ 1 MCG/ML ([1]; Table R (MFCs)) | percentage of strains with MFCs ≤ 1 mcg/mL [2] | PERCENTAGE OF STRAINS WITH MICs ≤ 1 MCG/ML ([3]; Table R (MFCs)) | PERCENTAGE OF STRAINS WITH MICs ≤ 1 MCG/ML ([4]; Table R (MFCs)) | percentage of strains with MFCs ≤ 1 mcg/mL [5] | PERCENTAGE OF STRAINS WITH MICs ≤ 1 MCG/ML ([6]; Table R (MFCs)) | PERCENTAGE OF STRAINS WITH MICs ≤ 1 MCG/ML ([7]; Table R (MFCs)) | serum levels compared to azoles of similar structure [8] | induction of cytochrome P-450 liver drug metabolizing enzymes [9] | PERCENTAGE OF STRAINS WITH MICs ≤ 1 MCG/ML ([1]; Table Q) | PERCENTAGE OF STRAINS WITH MICs ≤ 1 MCG/ML [2] | PERCENTAGE OF STRAINS WITH MICs ≤ 1 MCG/ML ([3]; Table Q) | PERCENTAGE OF STRAINS WITH MICs ≤ 1 MCG/ML ([4]; Table Q) | PERCENTAGE OF STRAINS WITH MICs ≤ 1 MCG/ML [5] | PERCENTAGE OF STRAINS WITH MICs ≤ 1 MCG/ML ([6]; Table Q) | MIC 90 [6] | PERCENTAGE OF STRAINS WITH MICs ≤ 1 MCG/ML ([7]; Table Q)
OC(Cn1cncn1)(Cn1cncn1)c1ccc(F)cc1F [FLZ, fluconazole, reference compound] | 0% | 100% | 0% | 100% | 0% | 0% | 0% |  |  |  |  |  |  |  |  |  | 
CCC(C(C)O)n1ncn(-c2ccc(N3CCN(c4ccc(OCC5COC(Cn6cncn6)(c6ccc(F)cc6F)C5)cc4)CC3)cc2)c1=O (centres unmarked) [drawing 28] |  |  |  |  |  |  |  | consistently higher serum levels | not inducers of various cytochrome P-450 liver drug metabolizing enzymes |  |  |  |  |  |  |  | 
CCC(C(C)O)n1ncn(-c2ccc(N3CCN(c4ccc(OCC5COC(Cn6cncn6)(c6ccc(F)cc6F)C5)cc4)CC3)cc2)c1=O (centres unmarked) [drawing 29] | 50% | 100% | 88% | 100% | 22% | 100% | 67% |  |  | 100% | 100% | 100% | 100% | 22% | 100% | .05 MCG/ML | 100%
CCC(C(C)O)n1ncn(-c2ccc(N3CCN(c4ccc(OCC5COC(Cn6cncn6)(c6ccc(F)cc6F)C5)cc4)CC3)cc2)c1=O (centres unmarked) [drawing 30] | 62% | 100% | 94% | 100% | 22% | 100% | 83% |  |  | 100% | 100% | 100% | 100% | 22% | 100% | .007 MCG/ML | 100%
CCC(C(C)O)n1ncn(-c2ccc(N3CCN(c4ccc(OCC5COC(Cn6cncn6)(c6ccc(F)cc6F)C5)cc4)CC3)cc2)c1=O (centres unmarked) [drawing 31] | 89% | 100% | 100% | 100% | 22% | 100% | 100% |  |  | 100% | 100% | 100% | 100% | 33% | 100% |  | 100%
